Data published in patent US20240409585A1, “MACROCYCLIC IMMUNOMODULATORS” (priority 2021, published 2024).
Bridge positions count the residues as written; N and C are the ends. Square brackets hold non-standard residues; d marks the D form. Peptide text beside a SMILES is read from it. Bip = N[C@@H](Cc1ccc(-c2ccccc2)cc1)C(=O)O; Bta = N[C@@H](Cc1csc2ccccc12)C(=O)O; 3Pal = N[C@@H](Cc1cccnc1)C(=O)O; NMeA = CN[C@@H](C)C(=O)O; Dab = NCC[C@H](N)C(=O)O

molecular target: T1, PE-labeled human PD-L1-Ig binding to Jurkat cell line over-expressing human PD-1 (Jurkat-PD-1) (Homo sapiens, UniProt Q15116); test: Jurkat-PD-1 Cell Binding High-Content Screening Assay (CBA): Method 1; conditions: Jurkat HPDL1 PD1 IC50 (uM) (Method 1), Jurkat-hPD-1 cells, PE-labeled PD-L1-Ig 20 nM final
T1 construct: expressed in transfected cells; host or cells: Jurkat
T1 sequence (Q15116 25-288): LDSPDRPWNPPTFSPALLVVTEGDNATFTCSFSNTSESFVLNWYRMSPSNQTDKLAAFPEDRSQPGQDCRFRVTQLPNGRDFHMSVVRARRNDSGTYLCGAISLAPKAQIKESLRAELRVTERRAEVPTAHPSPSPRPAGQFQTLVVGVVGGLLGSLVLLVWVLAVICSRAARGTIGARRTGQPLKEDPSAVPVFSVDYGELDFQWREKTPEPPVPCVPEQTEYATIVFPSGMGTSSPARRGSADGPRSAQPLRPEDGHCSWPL

Structure (SMILES)	IC50 [µM]
CC(C)C[C@@H]1NC(=O)[C@H](CCN)NC(=O)[C@@H](CC(C)C)NC(=O)[C@H](C)N(C)C(=O)[C@H](CCCNC(=N)N)NC(=O)[C@H](Cc2ccc(-c3ccccc3)cc2)NC(=O)[C@H](C(C)C)NC(=O)[C@H](Cc2c[nH]c3ccccc23)NC(=O)[C@H](CC(=O)O)NC(=O)[C@H](Cc2ccc(O)cc2)NC(=O)[C@H](Cc2ccccc2)NC(=O)CSC[C@@H](C(=O)N[C@@H](C)C(N)=O)NC(=O)[C@H](CO)NC(=O)[C@H](C(C)C)NC1=O [Compound 1030] ({CH2CO}-FYDWV[Bip]R[NMeA][dL][Dab]LVSCA-NH2; thioether N-14)	0.03
CC(C)C[C@@H]1NC(=O)[C@H](CCN)NC(=O)[C@@H](CC(C)C)NC(=O)[C@H](C)N(C)C(=O)[C@H](CCCNC(=N)N)NC(=O)[C@H](Cc2ccc(-c3ccccc3)cc2)NC(=O)[C@H](C(C)C)NC(=O)[C@H](Cc2c[nH]c3ccccc23)NC(=O)[C@H](CC(=O)O)NC(=O)[C@H](Cc2ccc(O)cc2)NC(=O)[C@H](Cc2cccnc2)NC(=O)CSC[C@@H](C(=O)N[C@@H](C)C(N)=O)NC(=O)[C@H](CO)NC(=O)[C@H](C(C)C)NC1=O [Compound 1034] ({CH2CO}-[3Pal]YDWV[Bip]R[NMeA][dL][Dab]LVSCA-NH2; thioether N-14)	0.05

same assay, conditions: Jurkat-hPD-1 cells, PE-labeled PD-L1-Ig 20 nM final; read-out: Jurkat HPDL1 PD1 IC50 (uM) (Method 1)

Structure (SMILES)	IC50 [µM]
CC(C)C[C@@H]1NC(=O)[C@H](CCCNC(=N)N)NC(=O)[C@@H](Cc2ccccc2)NC(=O)[C@H](C)N(C)C(=O)[C@H](CCCNC(=N)N)NC(=O)[C@H](Cc2ccc(-c3ccccc3)cc2)NC(=O)[C@H](C(C)C)NC(=O)[C@H](Cc2c[nH]c3ccccc23)NC(=O)[C@H](CC(=O)O)NC(=O)[C@H](Cc2ccc(O)cc2)NC(=O)[C@H](Cc2cnc[nH]2)NC(=O)CSC[C@@H](C(=O)NCC(N)=O)NC(=O)[C@H](CO)NC(=O)[C@H](C(C)C)NC1=O [Compound 1031] ({CH2CO}-HYDWV[Bip]R[NMeA][dF]RLVSCG-NH2; thioether N-14)	0.09
CC(C)C[C@@H]1NC(=O)[C@H](CCCNC(=N)N)NC(=O)[C@@H](Cc2ccccc2)NC(=O)[C@H](C)N(C)C(=O)[C@H](CCCNC(=N)N)NC(=O)[C@H](Cc2ccc(-c3ccccc3)cc2)NC(=O)[C@H](C(C)C)NC(=O)[C@H](Cc2c[nH]c3ccccc23)NC(=O)[C@H](CC(=O)O)NC(=O)[C@H](Cc2ccc(O)cc2)NC(=O)[C@H](CC(N)=O)NC(=O)CSC[C@@H](C(=O)NCC(N)=O)NC(=O)[C@H](CO)NC(=O)[C@H](C(C)C)NC1=O [Compound 1032] ({CH2CO}-NYDWV[Bip]R[NMeA][dF]RLVSCG-NH2; thioether N-14)	0.51
CC(C)C[C@@H]1NC(=O)[C@H](CCCNC(=N)N)NC(=O)[C@@H](CC(C)C)NC(=O)[C@H](C)N(C)C(=O)[C@H](CCCNC(=N)N)NC(=O)[C@H](Cc2ccc(-c3ccccc3)cc2)NC(=O)[C@H](C(C)C)NC(=O)[C@H](Cc2c[nH]c3ccccc23)NC(=O)[C@H](CC(=O)O)NC(=O)[C@H](Cc2ccc(O)cc2)NC(=O)[C@H](CC(N)=O)NC(=O)CSC[C@@H](C(=O)N[C@@H](C)C(N)=O)NC(=O)[C@H](CO)NC(=O)[C@H](C(C)C)NC1=O [Compound 1033] ({CH2CO}-NYDWV[Bip]R[NMeA][dL]RLVSCA-NH2; thioether N-14)	0.03
CC(C)C[C@@H]1NC(=O)[C@H](CCCNC(=N)N)NC(=O)[C@@H](CC(C)C)NC(=O)[C@H](C)N(C)C(=O)[C@H](CCCNC(=N)N)NC(=O)[C@H](Cc2ccc(-c3ccccc3)cc2)NC(=O)[C@H](C(C)C)NC(=O)[C@H](Cc2c[nH]c3ccccc23)NC(=O)[C@H](CC(=O)O)NC(=O)[C@H](Cc2ccc(O)cc2)NC(=O)[C@H](Cc2ccccc2)NC(=O)CSC[C@@H](C(=O)N[C@@H](C)C(N)=O)NC(=O)[C@H](CO)NC(=O)[C@H](C(C)C)NC1=O [Compound 1035] ({CH2CO}-FYDWV[Bip]R[NMeA][dL]RLVSCA-NH2; thioether N-14)	0.08

Results, then the compound that gave them:

IC50 [µM]	Structure (SMILES)
0.05	CC(C)C[C@@H]1NC(=O)[C@H](CCCNC(=N)N)NC(=O)[C@@H](CC(C)C)NC(=O)[C@H](C)N(C)C(=O)[C@H](CCCNC(=N)N)NC(=O)[C@H](Cc2ccc(-c3ccccc3)cc2)NC(=O)[C@H](C(C)C)NC(=O)[C@H](Cc2c[nH]c3ccccc23)NC(=O)[C@H](CC(=O)O)NC(=O)[C@H](Cc2ccc(O)cc2)NC(=O)[C@H](Cc2cccnc2)NC(=O)CSC[C@@H](C(=O)N[C@@H](C)C(N)=O)NC(=O)[C@H](CO)NC(=O)[C@H](C(C)C)NC1=O [Compound 1036] ({CH2CO}-[3Pal]YDWV[Bip]R[NMeA][dL]RLVSCA-NH2; thioether N-14)
0.14	CC(C)C[C@@H]1NC(=O)CSC[C@@H](C(=O)N[C@@H](C)C(N)=O)NC(=O)[C@H](CO)NC(=O)[C@H](C(C)C)NC(=O)[C@H](CC(C)C)NC(=O)[C@H](CCCNC(=N)N)NC(=O)[C@@H](CC(C)C)NC(=O)[C@H](C)N(C)C(=O)[C@H](CCCNC(=N)N)NC(=O)[C@H](Cc2ccc(-c3ccccc3)cc2)NC(=O)[C@H](C(C)C)NC(=O)[C@H](Cc2c[nH]c3ccccc23)NC(=O)[C@H](CC(=O)O)NC(=O)[C@H](Cc2ccc(O)cc2)NC1=O [Compound 1037] ({CH2CO}-LYDWV[Bip]R[NMeA][dL]RLVSCA-NH2; thioether N-14)
0.13	CC(C)C[C@@H]1NC(=O)[C@H](CCN)NC(=O)[C@@H](CC(C)C)NC(=O)[C@H](C)N(C)C(=O)[C@H](CCCNC(=N)N)NC(=O)[C@H](Cc2ccc(-c3ccccc3)cc2)NC(=O)[C@H](C(C)C)NC(=O)[C@H](Cc2c[nH]c3ccccc23)NC(=O)[C@H](CC(=O)O)NC(=O)[C@H](Cc2ccc(O)cc2)NC(=O)[C@H](CC(N)=O)NC(=O)CSC[C@@H](C(=O)N[C@@H](C)C(N)=O)NC(=O)[C@H]([C@@H](C)O)NC(=O)[C@H](C(C)C)NC1=O [Compound 1038] ({CH2CO}-NYDWV[Bip]R[NMeA][dL][Dab]LVTCA-NH2; thioether N-14)
0.08	CC(C)C[C@@H]1NC(=O)CSC[C@@H](C(=O)N[C@@H](C)C(N)=O)NC(=O)[C@H]([C@@H](C)O)NC(=O)[C@H](C(C)C)NC(=O)[C@H](CC(C)C)NC(=O)[C@H](CCN)NC(=O)[C@@H](CC(C)C)NC(=O)[C@H](C)N(C)C(=O)[C@H](CCCNC(=N)N)NC(=O)[C@H](Cc2ccc(-c3ccccc3)cc2)NC(=O)[C@H](C(C)C)NC(=O)[C@H](Cc2c[nH]c3ccccc23)NC(=O)[C@H](CC(=O)O)NC(=O)[C@H](Cc2ccc(O)cc2)NC1=O [Compound 1039] ({CH2CO}-LYDWV[Bip]R[NMeA][dL][Dab]LVTCA-NH2; thioether N-14)
0.17	CC(C)C[C@@H]1NC(=O)[C@H](CCCNC(=N)N)NC(=O)[C@H](Cc2csc3ccccc23)NC(=O)[C@H](C)N(C)C(=O)[C@H](CCCNC(=N)N)NC(=O)[C@H](Cc2ccc(-c3ccccc3)cc2)NC(=O)[C@H](C(C)C)NC(=O)[C@H](Cc2c[nH]c3ccccc23)NC(=O)[C@H](CC(=O)O)NC(=O)[C@H](Cc2ccc(O)cc2)NC(=O)[C@H](Cc2cnc[nH]2)NC(=O)CSC[C@@H](C(=O)N[C@@H](C)C(N)=O)NC(=O)[C@H](CO)NC(=O)[C@H](C(C)C)NC1=O [Compound 1040] ({CH2CO}-HYDWV[Bip]R[NMeA][Bta]RLVSCA-NH2; thioether N-14)
0.31	CC(C)C[C@@H]1NC(=O)CSC[C@@H](C(=O)N[C@@H](C)C(N)=O)NC(=O)[C@H](CO)NC(=O)[C@H](C(C)C)NC(=O)[C@H](CC(C)C)NC(=O)[C@H](CCCNC(=N)N)NC(=O)[C@H](Cc2csc3ccccc23)NC(=O)[C@H](C)N(C)C(=O)[C@H](CCCNC(=N)N)NC(=O)[C@H](Cc2ccc(-c3ccccc3)cc2)NC(=O)[C@H](C(C)C)NC(=O)[C@H](Cc2c[nH]c3ccccc23)NC(=O)[C@H](CC(=O)O)NC(=O)[C@H](Cc2ccc(O)cc2)NC1=O [Compound 1041] ({CH2CO}-LYDWV[Bip]R[NMeA][Bta]RLVSCA-NH2; thioether N-14)
